Measured values reported in patent publication US9199965B2, “Benzoimidazole derivatives and pharmaceutical composition comprising the same” (Daewoong Co., Ltd., priority 2005, dated 2015).

Key:
human vanilloid-1 (hVR1) = biological target: T1, human vanilloid-1 (hVR1) (Homo sapiens, UniProt Q8NER1); test: Calcium influx of vanilloid receptor in hVR1-HEK293 cells (capsaicin-induced, Fluo-3/AM); assay type: cell-based; settings: 1 μM capsaicin-induced intracellular calcium influx, read-out: Inhibitory Activity IC50
T1 construct: expressed in transfected cells; host or cells: HEK293 Tet-on (hVR1-HEK293), doxycycline-induced
Description: Experiments for calcium influx were performed to measure the activity of the compounds as antagonists.
The cell strain hVR1-HEK293 is the human embryonic kidney (HEK) 293 Tet-on cell transfected with a human vanilloid-1 gene (pTRE2hyg-hVR1, 7.8 kb), which is capable of controlling the expression of VR1 according to the administration of deoxycycline, a tetracycline derivative analog. In a medium supplemented with deoxycycline two days before calcium influx experiments, the cell strain was cultured to induce the expression of VR1. After being grown to a confluency of about 80% in T75 flasks, hVR1-HEK293 was detached from the flask using trypsin. Cells harvested by centrifugation were suspended in a medium supplemented with 1 μg/mL of deoxycycline and diluted to a density of 2-4×10^5 cells/mL, after which a 100 μL aliquot of the cell suspension was added to each well of 96 well black plates. Before the measurement of calcium influx, the cells were incubated for two days at 37° C. in a 5% CO2 incubator.
For use in calcium influx experiments, each compound was dissolved in dimethyl sulfoxide (DMSO).
To measure an intracellular calcium influx, cells were incubated at 37° C. for 90 min in a medium containing the calcium indicator Fluo-3/AM so as to allow the fluorescent dye to penetrate into the cells. Then, the cells were washed three times with D-PBS (Dulbecco's phosphate buffered saline) containing 10 mM HEPES to remove the fluorescent dye which remained outside. 193 μL aliquot of D-PBS was added to each well, followed by the addition of various concentrations of compounds thereto. In order to measure the antagonistic activity of the compounds, calcium influx was induced by treatment with 1 μM capsaicin. The inhibitory effect of each compound on 1 μM capsaicin-induced intracellular calcium influx according to compound concentration was measured using a fluorescent analyzer and the data thus obtained were analyzed on the basis of the Hill's equation.

rat TRPV1 = biological target: T2, rat TRPV1 (Rattus norvegicus, UniProt O35433); test: Assay for inhibitory activity against VR1 patch clamp activity (capsaicin current, inside-out patch); assay type: cell-based; settings: 1 μM compound with 10 μM capsaicin; rat TRPV1-transfected HEK293, inside-out patch; relative to capsaicin current before compound
T2 construct: expressed in transfected cells; host or cells: HEK293
Description: Each of the compounds synthesized in the examples were dissolved in dimethyl sulfoxide (DMSO) at a concentration of 10 mM. For use in the assay for inhibitory activity against patch clamp activity, the solutions were diluted to a concentration of 1 μM with the same physiological saline as in the pipette solution of Table 1, below.
2) Assay for Inhibitory Activity Against VR1 Patch Clamp Activity
In this experiment, changes in VR1 activity were recorded in current using an electrophysiological technique.
For use in this experiment, a rat TRPV1 cDNA was transfected into a subcultured HEK293 strain with the aid of lipofectamin.
The rat TRPV1 gene-transfected HEK293 cells were detached from the cell culture dishes with trypsin and distributed on a patch clamp recording chamber.
A cover glass slip on the bottom of the patch clamp recording chamber was treated for 15 min or longer with a […] poly-L-lysine solution so that the HEK cells would readily adhere thereto. Cellular membranes were ruptured at room temperature (˜25° C.) from randomly selected HEK cells to perform an inside-out patch clamp technique. 10 μM of capsaicin was fed into the chamber (cytoplasmic side) to activate a capsaicin current through the VR1. When the capsaicin current reached a stable stage, each compound was added along with 10 μM of capsaicin to record the inhibitory activity of the compounds with regard to the current. The inhibition was expressed as percentages.
Detected current was amplified using a Digidata 1200B A/D converter and an Axopatch 1D amplifier (Axon instruments Inc.), and the data were recorded and analyzed with the aid of a computer. The inhibitory activity of each compound was expressed as a percentage relative to the capsaicin current immediately before the administration of each compound.

[1] = system: ICR male mice (PBQ-induced writhing); test: PBQ-induced writhing test for analgesic effect; assay type: in vivo; settings: Mus musculus, 1 h, 20 mg/kg oral, one hour before intraabdominal PBQ (0.02%), read-out: % Inhibition (decrease in number of writhes compared to control)
Description: A PBQ-induced writhing test was conducted in mice to assay for the analgesic effect of the novel compounds. Five-week-old ICR male mice were treated with PBQ (phenyl-p-quinone, 0.02%). A suspension of 20 mg of test material in 10 mL of physiological saline was used per kg of weight of mice. Test materials in combination with a carrier were orally administered one hour before the intraabdominal injection of PBQ in a dose of 10 mL per kg weight. From 5 min after the injection, individual mice in each test group were measured for numbers of writhes at regular intervals of 10 min. Analgesic effects of test compounds were expressed as percentages of the decrease in number of writhes compared to a control. [% Inhibition=(Control administered with carrier alone−Group administered with test material)/control administered with carrier alone×100]

T1 sequence (Q8NER1 whole entry): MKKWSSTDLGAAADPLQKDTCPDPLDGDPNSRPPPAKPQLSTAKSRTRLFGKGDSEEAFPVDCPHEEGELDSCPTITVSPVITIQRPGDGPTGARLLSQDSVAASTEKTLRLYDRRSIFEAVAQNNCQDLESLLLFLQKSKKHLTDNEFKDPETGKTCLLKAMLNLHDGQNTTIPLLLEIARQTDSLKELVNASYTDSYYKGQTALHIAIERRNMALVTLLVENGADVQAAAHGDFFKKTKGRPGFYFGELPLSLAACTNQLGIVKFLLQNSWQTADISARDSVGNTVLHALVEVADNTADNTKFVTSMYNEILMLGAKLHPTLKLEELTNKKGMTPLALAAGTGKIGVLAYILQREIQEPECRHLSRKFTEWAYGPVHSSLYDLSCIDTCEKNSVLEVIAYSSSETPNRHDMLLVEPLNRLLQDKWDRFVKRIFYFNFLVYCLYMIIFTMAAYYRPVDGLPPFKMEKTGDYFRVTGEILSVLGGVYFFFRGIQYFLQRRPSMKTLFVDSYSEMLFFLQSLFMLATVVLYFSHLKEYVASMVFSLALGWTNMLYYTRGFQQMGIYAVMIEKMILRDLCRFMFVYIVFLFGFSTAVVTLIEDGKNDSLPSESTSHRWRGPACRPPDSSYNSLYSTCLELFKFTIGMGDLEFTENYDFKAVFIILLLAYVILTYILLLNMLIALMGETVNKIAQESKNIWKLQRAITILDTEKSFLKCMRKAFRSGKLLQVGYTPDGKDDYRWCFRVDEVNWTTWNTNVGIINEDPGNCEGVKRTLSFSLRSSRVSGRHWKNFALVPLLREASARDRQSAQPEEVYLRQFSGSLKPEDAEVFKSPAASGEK
T2 sequence (O35433 whole entry): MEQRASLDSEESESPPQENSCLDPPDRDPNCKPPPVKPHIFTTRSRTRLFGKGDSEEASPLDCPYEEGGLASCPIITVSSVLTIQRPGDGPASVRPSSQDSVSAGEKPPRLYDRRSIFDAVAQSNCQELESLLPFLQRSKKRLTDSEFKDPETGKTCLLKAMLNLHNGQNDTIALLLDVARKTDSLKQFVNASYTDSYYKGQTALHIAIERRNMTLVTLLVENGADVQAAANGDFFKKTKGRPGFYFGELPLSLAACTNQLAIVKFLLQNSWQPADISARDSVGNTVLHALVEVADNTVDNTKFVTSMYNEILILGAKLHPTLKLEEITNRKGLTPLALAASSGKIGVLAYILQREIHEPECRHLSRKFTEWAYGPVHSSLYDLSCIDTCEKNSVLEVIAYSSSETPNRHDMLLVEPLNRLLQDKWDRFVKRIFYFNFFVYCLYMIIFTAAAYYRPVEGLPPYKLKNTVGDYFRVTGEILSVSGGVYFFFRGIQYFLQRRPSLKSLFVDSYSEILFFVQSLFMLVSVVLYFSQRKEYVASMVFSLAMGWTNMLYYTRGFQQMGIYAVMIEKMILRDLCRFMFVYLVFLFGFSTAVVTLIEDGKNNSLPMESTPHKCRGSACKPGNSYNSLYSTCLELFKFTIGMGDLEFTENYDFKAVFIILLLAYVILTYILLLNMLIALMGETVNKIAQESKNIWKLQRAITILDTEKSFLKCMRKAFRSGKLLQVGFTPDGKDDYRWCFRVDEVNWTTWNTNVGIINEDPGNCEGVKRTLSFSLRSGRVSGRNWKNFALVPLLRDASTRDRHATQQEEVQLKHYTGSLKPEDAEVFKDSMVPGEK

Structure (SMILES)	IC50 (human vanilloid-1 (hVR1)) [µM]	inhibition at 1 µM (rat TRPV1) [%]	inhibition in vivo at 20 mg/kg [1] [%]
Clc1ccc2nc(-c3ccc(-c4ncccc4Cl)cc3)[nH]c2c1 [Compound 2, 6-chloro-2-[4-(3-chloropyridin-2-yl)phenyl]-1H-benzoimidazole]	8.57	45	
COc1ccc2nc(-c3ccc(-c4ncccc4Cl)cc3)[nH]c2c1 [Compound 5, 2-[4-(3-chloropyridin-2-yl)phenyl]-6-methoxy-1H-benzoimidazole]	6.04	10	
FC(F)(F)c1cnc2nc(-c3ccc(-c4ncccc4Cl)cc3)[nH]c2c1 [Compound 8, 2-[4-(3-chloropyridin-2-yl)phenyl]-6-trifluoromethyl-1H-imidazo[4,5-b]pyridine]	0.031	41	
Cc1ccc2nc(-c3ccc(-c4ncccc4Cl)cc3)[nH]c2c1C [Compound 10, 2-[4-(3-chloropyridin-2-yl)phenyl]-6,7-dimethyl-1H-benzoimidazole]	0.114	80	
CC(C)(C)c1ccc2nc(-c3ccc(-c4ncccc4C(F)(F)F)cc3)[nH]c2c1 [Compound 30, 6-tert-butyl-2-[4-(3-trifluoromethylpyridin-2-yl)phenyl]-1H-benzoimidazole]	0.023	96	
FC(F)(F)c1cnc2nc(-c3ccc(-c4ncccc4C(F)(F)F)cc3)[nH]c2c1 [Compound 34, 6-trifluoromethyl-2-[4-(3-trifluoromethylpyridin-2-yl)phenyl]-1H-imidazo[4,5-b]pyridine]	0.026	16	
CC(C)(C)c1ccc2nc(-c3ccc(-c4ncc(Cl)cc4Cl)cc3F)[nH]c2c1 [Compound 70, 6-tert-butyl-2-[4-(3,5-dichloropyridin-2-yl)-2-fluorophenyl]-1H-benzoimidazole]		45	
FC(F)(F)c1ccc2nc(-c3ccc(-c4ncccc4Cl)c4ccccc34)[nH]c2c1 [Compound 104, 2-[4-(3-chloropyridin-2-yl)naphthalen-1-yl]-6-trifluoromethyl-1H-benzoimidazole]	0.031	86	
CC(C)(C)c1ccc2nc(-c3ccc(-c4ncccc4Cl)c(Cl)c3)[nH]c2c1 [Compound 116, 6-tert-butyl-2-[3-chloro-4-(3-chloropyridin-2-yl)phenyl]-1H-benzoimidazole]		30	
FC(F)(F)c1ccc2nc(-c3ccc(-c4ncc(Cl)cc4Cl)c(Cl)c3)[nH]c2c1 [Compound 117, 2-[3-chloro-4-(3,5-dichloropyridin-2-yl)phenyl]-6-trifluoromethyl-1H-benzoimidazole]	0.525	80	
CC(C)(C)c1ccc2nc(-c3ccc(-c4ncc(Cl)cc4Cl)c(Cl)c3)[nH]c2c1 [Compound 118, 6-tert-butyl-2-[3-chloro-4-(3,5-dichloropyridin-2-yl)phenyl]-1H-benzoimidazole]	0.313	93	
CC(C)(C)c1ccc2nc(-c3ccc(-c4ncc(C(F)(F)F)cc4Cl)c(Cl)c3)[nH]c2c1 [Compound 121, 6-tert-butyl-2-[3-chloro-4-(3-chloro-5-trifluoromethylpyridin-2-yl)phenyl]-1H-benzoimidazole]		76	
FC(F)(F)c1cccnc1-c1ccc(-c2nc3ncc(Br)cc3[nH]2)nc1 [Compound 167, 6′-(6-bromo-1H-imidazo[4,5-b]pyridine-2-yl)-3-trifluoromethyl[2,3′]bipyridine]			55
FC(F)(F)c1cccnc1-c1ccc(-c2nc3ccc(N4CCOCC4)cc3[nH]2)nc1 [Compound 169, 6′-(6-morpholin-4-yl-1H-benzoimidazo-2-yl)-3-trifluoromethyl-[2,3′]bipyridine]			57
c1cnc2[nH]c(-c3ccc(-n4cccc4)cc3)nc2c1 [Compound 179, 2-(4-pyrrol-1-ylphenyl)-3H-imidazo[4,5-b]pyridine]		100	
CC(C)(C)c1ccc2nc(-c3ccc(-n4cccc4)cc3)[nH]c2c1 [Compound 181, 6-tert-butyl-2-(4-pyrrol-1-ylphenyl]-1H-benzoimidazole]	0.221	40	
FC(F)(F)c1ccc2nc(-c3ccc(-c4ccccc4)cc3)[nH]c2c1 [Compound 183, 2-biphenyl-4-yl-6-trifluoromethyl-1H-benzoimidazole]		17	
FC(F)(F)c1ccc2nc(-c3ccc(Oc4ccccc4)cc3)[nH]c2c1 [Compound 189, 2-(4-phenoxyphenyl-6-trifluoromethyl)-1H-benzoimidazole]		90	
Fc1ccc2nc(-c3ccc(Oc4ccccc4)cc3)[nH]c2c1 [Compound 193, 6-fluoro-2-(4-phenoxyphenyl)-1H-benzoimidazole]		50	

More lines, main results first:

IC50 (human vanilloid-1 (hVR1)) [µM]	inhibition at 1 µM (rat TRPV1) [%]	Structure (SMILES)	inhibition in vivo at 20 mg/kg [1] [%]
0.013	78	FC(F)(F)c1cccnc1-c1ccc(-c2nc3ccc(Cl)cc3[nH]2)cc1 [Compound 32, 6-chloro-2-[4-(3-trifluoromethylpyridin-2-yl)phenyl]-1H-benzoimidazole]	
	71	FC(F)(F)c1cc(C(F)(F)F)c2nc(-c3ccc(-c4ccccn4)c4ccccc34)[nH]c2c1 [Compound 115, 2-(4-pyridin-2-ylnaphthalen-1-yl)-4,6-bistrifluoromethyl-1H-benzoimidazole]	
0.105	87	CC(C)(C)c1ccc2nc(-c3ccc(-c4ccccn4)c(Cl)c3)[nH]c2c1 [Compound 126, 6-tert-butyl-2-(3-chloro-4-pyridin-2-ylphenyl)-1H-benzoimidazole]	
0.097	84	FC(F)(F)c1ccc2nc(-c3ccc(-c4ncc(Cl)cc4Cl)cn3)[nH]c2c1 [Compound 151, 3,5-dichloro-6′-(6-trifluoromethyl-1H-benzoimidazole-2-yl)-[2,3′]bipyridine]	
0.023	58	FC(F)(F)c1cc(Cl)c2nc(-c3ccc(-c4ncccc4C(F)(F)F)cn3)[nH]c2c1 [Compound 161, 6′-(4-chloro-6-trifluoromethyl-1H-benzoimidazole-2-yl)-3-trifluoromethyl-[2,3′]bipyridine and 6′-(5-trifluoromethyl-7-chloro-1H-benzoimidazole-2-yl)-3-trifluoromethyl-[2,3′]bipyridine]	
	20	FC(F)(F)c1ccc2nc(-c3ccc(-n4cccc4)cc3)[nH]c2c1 [Compound 178, 2-(4-pyrrol-1-ylphenyl]-6-trifluoromethyl-1H-benzoimidazole]	
	60	Clc1ccc2nc(-c3ccc(Oc4ccccc4)cc3)[nH]c2c1 [Compound 191, 6-chloro-2-(4-phenoxyphenyl)-1H-benzoimidazole]	
	30	COc1ccc2nc(-c3ccc(Oc4ccccc4)cc3)[nH]c2c1 [Compound 194, 6-methoxy-2-(4-phenoxyphenyl)-1H-benzoimidazole]	
1.4		FC(F)(F)c1ccc2nc(-c3cccc(Cn4cc(Cl)cn4)c3)[nH]c2c1 [Compound 195, 2-[3-(4-chloropyrazol-1-ylmethyl)phenyl]-6-trifluoromethyl-1H-benzoimidazole]	
